Assay in all cases: biochemical
What all share (parameters): KINOMEscan competition binding, DNA-tagged kinase against immobilised ligand, qPCR read-out
Common to all, as to details: read-out: Percent Control
(Quantitative PCR measures a nucleic acid by following its amplification.)

Test [1] concerns the target EPHA1 (Homo sapiens, UniProt P21709).
Test [2] has as its target FER (Homo sapiens, UniProt P16591).
The target in test [3] is TBK1 (Homo sapiens, UniProt Q9UHD2).
The target of test [4] is ACVRL1 (Homo sapiens, UniProt P37023).
For test [5], the target named is OXSR1 (Homo sapiens, UniProt O95747).
In test [6] the target is MAP3K3 (Homo sapiens, UniProt Q99759).
Test [7] has as its target ERBB3 (Homo sapiens, UniProt P21860).
In test [8] the target is CHUK (Homo sapiens, UniProt O15111).
In test [9] the target is TYRO3 (Homo sapiens, UniProt Q06418).
Test [10] addresses CDK15 (Homo sapiens, UniProt Q96Q40).
Test [11] deals with SRC (Homo sapiens, UniProt P12931).
The target of test [12] is HIPK4 (Homo sapiens, UniProt Q8NE63).
For test [13], the target named is STK3 (Homo sapiens, UniProt Q13188).
The target in test [14] is MAP4K1 (Homo sapiens, UniProt Q92918).
Test [15] addresses PRKAA1 (Homo sapiens, UniProt Q13131).
Test [16] has as its target BTK (Homo sapiens, UniProt Q06187).
Test [17] has as its target MELK (Homo sapiens, UniProt Q14680).
Test [18] addresses PAK6 (Homo sapiens, UniProt Q9NQU5).
Test [19] has as its target ULK1 (Homo sapiens, UniProt O75385).
In test [20] the target is FGR (Homo sapiens, UniProt P09769).
Chain of FGR (P09769 whole entry): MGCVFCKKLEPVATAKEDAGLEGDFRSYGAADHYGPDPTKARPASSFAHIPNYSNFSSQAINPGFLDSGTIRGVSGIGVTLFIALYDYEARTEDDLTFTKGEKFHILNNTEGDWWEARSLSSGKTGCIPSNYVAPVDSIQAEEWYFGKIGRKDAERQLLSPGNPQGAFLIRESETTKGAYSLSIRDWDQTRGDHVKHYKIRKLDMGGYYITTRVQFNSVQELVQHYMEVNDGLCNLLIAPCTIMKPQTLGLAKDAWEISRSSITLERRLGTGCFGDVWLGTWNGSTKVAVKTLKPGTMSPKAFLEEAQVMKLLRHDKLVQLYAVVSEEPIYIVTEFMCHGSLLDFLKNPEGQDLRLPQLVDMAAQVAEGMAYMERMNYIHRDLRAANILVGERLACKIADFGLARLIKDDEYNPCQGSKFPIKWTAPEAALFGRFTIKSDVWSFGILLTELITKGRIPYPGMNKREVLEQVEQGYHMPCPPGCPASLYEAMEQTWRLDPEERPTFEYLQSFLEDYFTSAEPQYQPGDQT

Chain of FER (P16591 whole entry): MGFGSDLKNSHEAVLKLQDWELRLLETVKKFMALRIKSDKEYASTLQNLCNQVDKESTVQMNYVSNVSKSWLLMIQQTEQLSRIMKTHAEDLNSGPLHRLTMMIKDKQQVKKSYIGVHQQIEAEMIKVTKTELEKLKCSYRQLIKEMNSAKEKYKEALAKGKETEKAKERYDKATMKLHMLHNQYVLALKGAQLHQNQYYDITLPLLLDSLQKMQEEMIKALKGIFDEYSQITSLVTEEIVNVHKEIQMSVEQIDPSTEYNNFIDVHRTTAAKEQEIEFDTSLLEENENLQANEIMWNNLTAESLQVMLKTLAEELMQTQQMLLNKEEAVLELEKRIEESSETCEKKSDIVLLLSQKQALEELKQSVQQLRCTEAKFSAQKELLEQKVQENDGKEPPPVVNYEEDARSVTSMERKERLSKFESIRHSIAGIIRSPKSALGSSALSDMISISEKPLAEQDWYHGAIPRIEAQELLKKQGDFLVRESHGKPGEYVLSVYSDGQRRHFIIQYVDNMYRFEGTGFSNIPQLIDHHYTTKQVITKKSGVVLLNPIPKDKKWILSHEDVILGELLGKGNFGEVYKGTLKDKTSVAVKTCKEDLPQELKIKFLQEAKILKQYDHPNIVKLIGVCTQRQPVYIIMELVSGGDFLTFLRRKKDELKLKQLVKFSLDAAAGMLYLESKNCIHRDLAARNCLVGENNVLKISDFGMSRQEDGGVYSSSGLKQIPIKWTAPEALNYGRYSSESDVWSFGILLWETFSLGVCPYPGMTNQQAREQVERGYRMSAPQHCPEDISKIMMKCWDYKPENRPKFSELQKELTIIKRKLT
Chain of EPHA1 (P21709 whole entry): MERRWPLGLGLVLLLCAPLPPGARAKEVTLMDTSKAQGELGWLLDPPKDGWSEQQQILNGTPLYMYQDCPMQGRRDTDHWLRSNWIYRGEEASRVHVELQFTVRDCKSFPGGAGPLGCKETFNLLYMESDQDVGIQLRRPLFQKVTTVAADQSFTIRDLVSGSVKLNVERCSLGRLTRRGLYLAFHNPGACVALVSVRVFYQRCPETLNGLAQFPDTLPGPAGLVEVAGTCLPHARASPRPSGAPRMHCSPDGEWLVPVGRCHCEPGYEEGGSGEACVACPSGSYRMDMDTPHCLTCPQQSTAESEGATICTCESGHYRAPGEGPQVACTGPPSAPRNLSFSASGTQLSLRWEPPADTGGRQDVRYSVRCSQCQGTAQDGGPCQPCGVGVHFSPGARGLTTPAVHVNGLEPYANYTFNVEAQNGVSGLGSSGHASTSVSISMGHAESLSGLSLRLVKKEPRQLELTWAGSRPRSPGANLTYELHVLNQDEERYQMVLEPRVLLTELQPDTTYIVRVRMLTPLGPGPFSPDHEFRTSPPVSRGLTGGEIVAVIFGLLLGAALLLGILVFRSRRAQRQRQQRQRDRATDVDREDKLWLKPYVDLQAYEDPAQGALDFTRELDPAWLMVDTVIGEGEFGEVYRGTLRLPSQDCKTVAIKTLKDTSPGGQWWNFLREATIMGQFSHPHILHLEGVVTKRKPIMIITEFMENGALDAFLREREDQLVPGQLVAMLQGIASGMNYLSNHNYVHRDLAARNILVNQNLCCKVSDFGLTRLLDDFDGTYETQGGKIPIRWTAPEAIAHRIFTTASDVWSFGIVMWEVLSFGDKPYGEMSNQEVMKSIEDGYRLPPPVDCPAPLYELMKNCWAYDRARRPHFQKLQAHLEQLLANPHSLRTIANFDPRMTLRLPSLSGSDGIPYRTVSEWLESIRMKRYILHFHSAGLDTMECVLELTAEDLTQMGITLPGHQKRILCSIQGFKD
Chain of HIPK4 (Q8NE63 whole entry): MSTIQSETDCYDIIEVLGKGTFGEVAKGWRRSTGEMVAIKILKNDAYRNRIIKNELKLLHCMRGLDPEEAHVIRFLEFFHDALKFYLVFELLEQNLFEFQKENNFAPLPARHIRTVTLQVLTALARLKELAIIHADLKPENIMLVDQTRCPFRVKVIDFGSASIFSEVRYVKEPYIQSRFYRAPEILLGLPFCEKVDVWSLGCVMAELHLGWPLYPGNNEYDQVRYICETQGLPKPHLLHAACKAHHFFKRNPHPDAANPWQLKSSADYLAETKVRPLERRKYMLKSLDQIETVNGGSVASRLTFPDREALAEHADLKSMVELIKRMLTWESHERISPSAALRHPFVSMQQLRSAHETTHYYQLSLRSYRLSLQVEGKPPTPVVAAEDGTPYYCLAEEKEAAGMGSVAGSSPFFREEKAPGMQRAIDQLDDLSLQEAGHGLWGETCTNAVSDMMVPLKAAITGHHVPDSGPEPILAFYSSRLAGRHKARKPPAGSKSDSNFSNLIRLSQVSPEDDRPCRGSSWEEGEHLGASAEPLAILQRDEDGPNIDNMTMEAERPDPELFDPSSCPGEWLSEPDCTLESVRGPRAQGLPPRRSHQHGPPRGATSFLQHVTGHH
Chain of STK3 (Q13188 whole entry): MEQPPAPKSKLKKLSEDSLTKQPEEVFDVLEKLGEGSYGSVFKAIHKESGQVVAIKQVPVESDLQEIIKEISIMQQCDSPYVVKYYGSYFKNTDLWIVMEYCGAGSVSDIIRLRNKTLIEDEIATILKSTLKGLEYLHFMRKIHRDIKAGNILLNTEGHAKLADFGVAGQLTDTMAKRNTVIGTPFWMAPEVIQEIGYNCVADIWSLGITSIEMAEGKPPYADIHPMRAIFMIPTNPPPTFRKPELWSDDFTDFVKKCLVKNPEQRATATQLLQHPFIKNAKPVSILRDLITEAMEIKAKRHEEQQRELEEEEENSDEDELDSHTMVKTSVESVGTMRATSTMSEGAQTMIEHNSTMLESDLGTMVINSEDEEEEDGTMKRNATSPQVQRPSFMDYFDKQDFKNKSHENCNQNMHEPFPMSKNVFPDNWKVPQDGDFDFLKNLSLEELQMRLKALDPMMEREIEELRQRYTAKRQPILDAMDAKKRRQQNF
Chain of ACVRL1 (P37023 whole entry): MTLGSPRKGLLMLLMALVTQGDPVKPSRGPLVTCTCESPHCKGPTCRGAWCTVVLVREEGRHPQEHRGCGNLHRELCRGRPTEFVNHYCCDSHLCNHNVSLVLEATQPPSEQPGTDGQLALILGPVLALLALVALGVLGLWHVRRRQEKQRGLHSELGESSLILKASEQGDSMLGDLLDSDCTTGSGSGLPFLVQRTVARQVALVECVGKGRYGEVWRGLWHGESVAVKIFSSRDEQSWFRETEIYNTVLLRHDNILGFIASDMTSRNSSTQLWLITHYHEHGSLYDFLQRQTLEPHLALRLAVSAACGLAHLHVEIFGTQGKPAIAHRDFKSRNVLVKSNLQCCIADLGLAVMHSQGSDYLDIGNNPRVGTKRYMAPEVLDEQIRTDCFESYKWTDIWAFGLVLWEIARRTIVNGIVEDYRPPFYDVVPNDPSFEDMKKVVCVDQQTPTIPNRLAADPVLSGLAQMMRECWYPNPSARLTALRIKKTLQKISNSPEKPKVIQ
Chain of CHUK (O15111 whole entry): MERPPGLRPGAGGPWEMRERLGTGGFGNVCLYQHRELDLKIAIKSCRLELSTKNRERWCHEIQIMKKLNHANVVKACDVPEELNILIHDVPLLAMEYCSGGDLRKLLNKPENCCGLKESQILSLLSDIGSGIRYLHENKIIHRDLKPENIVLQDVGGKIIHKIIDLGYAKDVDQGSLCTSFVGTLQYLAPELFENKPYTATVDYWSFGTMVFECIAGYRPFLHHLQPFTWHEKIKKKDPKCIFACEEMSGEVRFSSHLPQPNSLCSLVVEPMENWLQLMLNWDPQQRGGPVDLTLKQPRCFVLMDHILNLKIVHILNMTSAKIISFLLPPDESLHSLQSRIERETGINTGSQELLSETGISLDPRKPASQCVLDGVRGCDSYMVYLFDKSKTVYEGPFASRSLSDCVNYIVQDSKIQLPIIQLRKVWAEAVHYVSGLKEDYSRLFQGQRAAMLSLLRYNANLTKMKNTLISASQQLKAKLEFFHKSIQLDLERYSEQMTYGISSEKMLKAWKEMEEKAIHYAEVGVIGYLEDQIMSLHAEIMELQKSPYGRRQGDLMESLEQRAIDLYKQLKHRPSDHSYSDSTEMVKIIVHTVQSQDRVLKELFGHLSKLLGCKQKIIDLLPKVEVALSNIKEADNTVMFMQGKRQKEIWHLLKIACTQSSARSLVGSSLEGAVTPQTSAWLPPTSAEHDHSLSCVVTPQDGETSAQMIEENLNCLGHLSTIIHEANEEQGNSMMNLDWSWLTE

For the compound `Oc1ccc(C2=Cc3ccc(O)cc3OC2)cc1` [compound 1, idronoxil], the remaining binding at 10 µM in [1] was found to be 69%; in test [2], 78%; in test [3] it was 99%; in [4], 92%; in [5], 75%; in test [6] it was 81%. Also, the remaining binding at 10 µM in test [7] turned out to be 73%; in test [8], 81%; in test [9], 66%; in test [10], 99%; in test [11], 47%; in [12] it was 75%. Further, the remaining binding at 10 µM in test [13] was 93%; in test [14], 78%; in test [15] it was 100%; in [16], 97%; in test [17] it was 64%; in [18], 100%. For the same compound, the values for the remaining binding at 10 µM in [19] and in test [20] were 89% and 74%, respectively.

(Values after article PMC10507085, “Pharmacological inhibition of TBK1/IKKε blunts immunopathology in a murine model of SARS-CoV-2 infection” (Nature Communications, 2023).)
